Experimental data: patent publication US9067943B2, “[1,2,3]triazolo[4,5-D]pyrimidine derivatives” (priority 2011, dated 2015)
Like-named read-outs stand apart in the source and are kept apart here.

Key:
human CB1 receptors = target: T1, human CB1 receptors (Homo sapiens, UniProt P21554); test: cAMP assay; type: cell-based
T1 construct: expressed in transfected cells; host or cells: CHO cells
Procedure, shortened: (§1)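 CHO cells expressing human CB1 or CB2 were preincubated 30 min at 30 °C in Krebs Ringer bicarbonate buffer with 1 mM IBMX, then exposed to compounds for 30 min at 30 °C. cAMP was measured by time-resolved FRET against a cAMP standard curve, and EC50 values were derived.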

human CB2 receptors = target: T2, human CB2 receptors (Homo sapiens, UniProt P34972); test: cAMP assay; type: cell-based
T2 construct: expressed in transfected cells; host or cells: CHO cells
Procedure, shortened: as §1

[1] = functional cAMP assay, CHO cells expressing human CB2, read-out: human CB2 EC50

T1 sequence (P21554 whole entry): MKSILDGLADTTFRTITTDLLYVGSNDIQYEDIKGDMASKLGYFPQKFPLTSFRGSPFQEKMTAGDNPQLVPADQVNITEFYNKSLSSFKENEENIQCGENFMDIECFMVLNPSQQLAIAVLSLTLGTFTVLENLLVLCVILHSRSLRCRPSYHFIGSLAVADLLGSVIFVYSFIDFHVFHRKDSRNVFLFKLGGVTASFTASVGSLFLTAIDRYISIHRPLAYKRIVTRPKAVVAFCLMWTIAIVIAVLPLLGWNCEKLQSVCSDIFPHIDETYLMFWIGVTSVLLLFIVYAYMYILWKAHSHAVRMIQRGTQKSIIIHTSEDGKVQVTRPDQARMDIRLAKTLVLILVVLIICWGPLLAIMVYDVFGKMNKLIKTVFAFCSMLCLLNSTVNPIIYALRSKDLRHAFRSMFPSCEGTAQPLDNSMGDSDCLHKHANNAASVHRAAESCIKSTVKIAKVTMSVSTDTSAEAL
T2 sequence (P34972 whole entry): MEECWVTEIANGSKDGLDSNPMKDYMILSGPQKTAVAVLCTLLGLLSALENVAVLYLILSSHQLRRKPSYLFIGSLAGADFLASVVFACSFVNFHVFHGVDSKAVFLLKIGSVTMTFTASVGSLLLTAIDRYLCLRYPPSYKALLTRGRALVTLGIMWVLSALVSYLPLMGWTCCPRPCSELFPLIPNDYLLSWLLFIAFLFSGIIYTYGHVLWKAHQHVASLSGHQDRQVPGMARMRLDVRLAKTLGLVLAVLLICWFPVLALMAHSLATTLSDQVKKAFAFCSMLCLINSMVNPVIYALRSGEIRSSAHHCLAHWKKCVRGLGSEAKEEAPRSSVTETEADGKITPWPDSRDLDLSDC

Compound | EC50 (human CB1 receptors) [nM] | EC50 (human CB2 receptors) [nM] | EC50 (human CB2 receptors; [1]) [nM] | EC50 (human CB1 receptors; functional cAMP assay, head printed human CB2 (probably human CB1), read-out: human CB2 EC50) [nM]
Cc1nnc(Cn2nc3nc(C(C)(C)C)nc(N4CC5(COC5)C4)c3n2)n1C [Example 106, 5-tert-Butyl-2-(4,5-dimethyl-4H-[1,2,4]triazol-3-ylmethyl)-7-(2-oxa-6-aza-spiro[3.3]hept-6-yl)-2H-[1,2,3]triazolo[4,5-d]pyrimidine] | > 10000 | 62.7 | – | –
C[C@H](Oc1nc(N2CCC(F)(F)C2)c2nn(Cc3nnnn3C)nc2n1)C(F)(F)F [Example 120, 7-(3,3-Difluoro-pyrrolidin-1-yl)-2-(1-methyl-1H-tetrazol-5-ylmethyl)-5-((S)-2,2,2-trifluoro-1-methyl-ethoxy)-2H-[1,2,3]triazolo[4,5-d]pyrimidine] | > 10000 | 69.4 | – | –
CC(C)(C)c1nc(N2CCC(F)(F)C2)c2nn(Cc3c(F)ccc(F)c3Cl)nc2n1 [Example 20, 5-tert-Butyl-2-(2-chloro-3,6-difluoro-benzyl)-7-(3,3-difluoro-pyrrolidin-1-yl)-2H-[1,2,3]triazolo[4,5-d]pyrimidine] | 34 | 0.2 | – | –
Cc1nc(Cn2nc3nc(C(C)(C)C)nc(N4CCC(F)(F)C4)c3n2)n(C)n1 [Example 96, 5-tert-Butyl-7-(3,3-difluoro-pyrrolidin-1-yl)-2-(2,5-dimethyl-2H-[1,2,4]triazol-3-ylmethyl)-2H-[1,2,3]triazolo[4,5-d]pyrimidine] | > 10000 | 22.6 | – | –
CC(C)(C)c1nc(N2CC[C@](C)(O)C2)c2nn(Cc3nnnn3C3CC3)nc2n1 [Example 133-a, (S)-1-[5-tert-Butyl-2-(1-cyclopropyl-1H-tetrazol-5-ylmethyl)-2H-[1,2,3]triazolo[4,5-d]pyrimidin-7-yl]-3-methyl-pyrrolidin-3-ol] | > 10000 | – | 126 | –
CC(C)Oc1nc(N2CC[C@H](O)C2)c2nn(Cc3ccccc3Cl)nc2n1 [Example 111, (S)-1-[2-(2-Chloro-benzyl)-5-isopropoxy-2H-[1,2,3]triazolo[4,5-d]pyrimidin-7-yl]-pyrrolidin-3-ol] | > 10000 | – | 265 | –
CC(C)(C)c1nc(N2CCC(F)(F)C2)c2nn(CCc3cccnc3)nc2n1 [Example 58, 5-tert-Butyl-7-(3,3-difluoro-pyrrolidin-1-yl)-2-(2-pyridin-3-yl-ethyl)-2H-[1,2,3]triazolo[4,5-d]pyrimidine] | > 10000 | 4.3 | – | –
CC(C)(C)c1nc(N2CCC(F)(F)C2)c2nn(Cc3ccc(F)cc3Cl)nc2n1 [Example 13, 5-tert-Butyl-2-(2-chloro-4-fluoro-benzyl)-7-(3,3-difluoro-pyrrolidin-1-yl)-2H-[1,2,3]triazolo[4,5-d]pyrimidine] | > 10000 | 1 | – | –
CC(C)(C)c1nc(N2CC[C@@](C)(O)C2)c2nn(Cc3nnnn3C3CC3)nc2n1 [Example 133-b, (R)-1-[5-tert-Butyl-2-(1-cyclopropyl-1H-tetrazol-5-ylmethyl)-2H-[1,2,3]triazolo[4,5-d]pyrimidin-7-yl]-3-methyl-pyrrolidin-3-ol] | > 10000 | – | 547 | –
Cc1noc(Cn2nc3nc(C(C)(C)C)nc(N4CCC(F)(F)C4)c3n2)n1 [Example 40, 5-tert-Butyl-7-(3,3-difluoro-pyrrolidin-1-yl)-2-(3-methyl-[1,2,4]oxadiazol-5-ylmethyl)-2H-[1,2,3]triazolo[4,5-d]pyrimidine] | > 10000 | 4.3 | – | –
CC(C)(C)c1nc(N2CCC(F)(F)C2)c2nn(Cc3c[nH]nc3C(F)(F)F)nc2n1 [Example 72, 5-tert-Butyl-7-(3,3-difluoro-pyrrolidin-1-yl)-2-(3-trifluoromethyl-1H-pyrazol-4-ylmethyl)-2H-[1,2,3]triazolo[4,5-d]pyrimidine] | > 10000 | 11.8 | – | –
CC(C)(C)c1nc(N2CCC(F)(F)C2)c2nn([C@@H]3CCOC3)nc2n1 [Example 45, 5-tert-Butyl-7-(3,3-difluoro-pyrrolidin-1-yl)-2-(R)-tetrahydro-furan-3-yl-2H-[1,2,3]triazolo[4,5-d]pyrimidine] | > 10000 | 7.6 | – | –
CC(C)(C)c1nc(N2CC[C@H](O)C2)c2nn(Cc3cccc(Cl)c3Cl)nc2n1 [Example 78, (S)-1-[5-tert-Butyl-2-(2,3-dichloro-benzyl)-2H-[1,2,3]triazolo[4,5-d]pyrimidin-7-yl]-pyrrolidin-3-ol] | > 10000 | 6 | – | –
Cc1nnc(Cn2nc3nc(O[C@@H](C)C(F)(F)F)nc(N4CCC(F)(F)C4)c3n2)o1 [Example 118, 7-(3,3-Difluoro-pyrrolidin-1-yl)-2-(5-methyl-[1,3,4]oxadiazol-2-ylmethyl)-5-((S)-2,2,2-trifluoro-1-methyl-ethoxy)-2H-[1,2,3]triazolo[4,5-d]pyrimidine] | > 10000 | – | 441 | –
CC(C)(C)c1nc(N2CCC(F)(F)C2)c2nn(Cc3cccc(Cl)c3Cl)nc2n1 [Example 9, 5-tert-Butyl-2-(2,3-dichloro-benzyl)-7-(3,3-difluoro-pyrrolidin-1-yl)-2H-[1,2,3]triazolo[4,5-d]pyrimidine] | > 10000 | 3.4 | – | –
CC(C)(C)c1nc(N2CCC(F)(F)C2)c2nn(Cc3cccnc3)nc2n1 [Example 16, 5-tert-Butyl-7-(3,3-difluoro-pyrrolidin-1-yl)-2-pyridin-3-ylmethyl-2H-[1,2,3]triazolo[4,5-d]pyrimidine] | > 10000 | 3.9 | – | –
CC(C)(C)c1nc(N2CCC(F)(F)C2)c2nn(CC(=O)c3ccccn3)nc2n1 [Example 64, 2-[5-tert-Butyl-7-(3,3-difluoro-pyrrolidin-1-yl)-[1,2,3]triazolo[4,5-d]pyrimidin-2-yl]-1-pyridin-2-yl-ethanone] | > 10000 | 2.4 | – | –
Cc1nnc(Cn2nc3nc(C(C)(C)C)nc(N4CCC(F)(F)C4)c3n2)n1C [Example 83, 5-tert-Butyl-7-(3,3-difluoro-pyrrolidin-1-yl)-2-(4,5-dimethyl-4H-[1,2,4]triazol-3-ylmethyl)-2H-[1,2,3]triazolo[4,5-d]pyrimidine] | > 10000 | 6.1 | – | –
CC(C)(C)c1nc(N2CCC(F)(F)C2)c2nn(CC(=O)c3ccc(Cl)cc3)nc2n1 [Example 53, 2-[5-tert-Butyl-7-(3,3-difluoro-pyrrolidin-1-yl)-[1,2,3]triazolo[4,5-d]pyrimidin-2-yl]-1-(4-chloro-phenyl)-ethanone] | > 10000 | 7.2 | – | –
Cc1c(Cn2nc3nc(C(C)(C)C)nc(N4CCC(F)(F)C4)c3n2)ccc[n+]1[O-] [Example 84, 5-tert-Butyl-7-(3,3-difluoro-pyrrolidin-1-yl)-2-(2-methyl-1-oxy-pyridin-3-ylmethyl)-2H-[1,2,3]triazolo[4,5-d]pyrimidine] | > 10000 | 94 | – | –
CC(=O)N[C@H]1CCN(c2nc(OCC(C)(C)C)nc3nn(Cc4ncccc4Cl)nc23)C1 [Example 135, N—{(S)-1-[2-(3-Chloro-pyridin-2-ylmethyl)-5-(2,2-dimethyl-propoxy)-2H-[1,2,3]triazolo[4,5-d]pyrimidin-7-yl]-pyrrolidin-3-yl}-acetamide] | > 10000 | – | 606 | –
Cc1nonc1Cn1nc2nc(C(C)(C)C)nc(N3CC[C@H](O)[C@@H]3CO)c2n1 [Example 98, (2S,3S)-1-[5-tert-Butyl-2-(4-methyl-furazan-3-ylmethyl)-2H-[1,2,3]triazolo[4,5-d]pyrimidin-7-yl]-2-hydroxymethyl-pyrrolidin-3-ol] | > 10000 | – | 211 | –
CC(C)(C)c1nc(N2CCC(F)(F)C2)c2nn(Cc3c(C(F)(F)F)ccc(Cl)c3Cl)nc2n1 [Example 60, 5-tert-Butyl-2-(2,3-dichloro-6-trifluoromethyl-benzyl)-7-(3,3-difluoro-pyrrolidin-1-yl)-2H-[1,2,3]triazolo[4,5-d]pyrimidine] | > 10000 | 12.7 | – | –
C[C@H](Oc1nc(N2CCC(F)(F)C2)c2nn(Cc3nnnn3C3CC3)nc2n1)C(F)(F)F [Example 123, 2-(1-Cyclopropyl-1H-tetrazol-5-ylmethyl)-7-(3,3-difluoro-pyrrolidin-1-yl)-5-((S)-2,2,2-trifluoro-1-methyl-ethoxy)-2H-[1,2,3]triazolo[4,5-d]pyrimidine] | > 10000 | 49.3 | – | –
CC(C)(C)c1nc(N2CCC(F)(F)C2)c2nn(CCc3ccccc3)nc2n1 [Example 26, 5-tert-Butyl-7-(3,3-difluoro-pyrrolidin-1-yl)-2-phenethyl-2H-[1,2,3]triazolo[4,5-d]pyrimidine] | 386 | 1.3 | – | –
CC(C)(C)Nc1nc(N2CCC(F)(F)C2)c2nn(Cc3ccccc3S(C)(=O)=O)nc2n1 [Example 137, tert-Butyl-[7-(3,3-difluoro-pyrrolidin-1-yl)-2-(2-methanesulfonyl-benzyl)-2H-[1,2,3]triazolo[4,5-d]pyrimidin-5-yl]-amine] | > 10000 | 5.3 | – | –
CC(C)(C)c1nc(N2CCC(F)(F)C2)c2nn(CC(=O)c3ccccc3Cl)nc2n1 [Example 47, 2-[5-tert-Butyl-7-(3,3-difluoro-pyrrolidin-1-yl)-[1,2,3]triazolo[4,5-d]pyrimidin-2-yl]-1-(2-chloro-phenyl)-ethanone] | > 10000 | 0.6 | – | –
CC(C)(C)c1nc(N2CCC(F)(F)C2)c2nn(Cc3ccccc3C#N)nc2n1 [Example 25, 2-[5-tert-Butyl-7-(3,3-difluoro-pyrrolidin-1-yl)-[1,2,3]triazolo[4,5-d]pyrimidin-2-ylmethyl]-benzonitrile] | 205 | 0.1 | – | –
5-tert-Butyl-2-(1-cyclopropyl-1H-tetrazol-5-ylmethyl)-7-(2-oxa-6-aza-spiro[3.3]hept-6-yl)-2H-[1,2,3]triazolo[4,5-d]pyrimidine [Example 105] | – | – | 110 | > 10000
CC(C)(C)c1nc(N2CCC(F)(F)C2)c2nn(CCc3ccc(Cl)cc3)nc2n1 [Example 43, 5-tert-Butyl-2-[2-(4-chloro-phenyl)-ethyl]-7-(3,3-difluoro-pyrrolidin-1-yl)-2H-[1,2,3]triazolo[4,5-d]pyrimidine] | > 10000 | 22 | – | –
